Source: US6291458A, “Morpholinobenzamide salts” (AstraZeneca AB, priority 1997, dated 2001)
In brackets after ≈: the same amount, converted by molar mass. Read-outs that look alike come from different tables or passages of the source. One block for each molecule: values may come before it.

Tests used:
[1] = Solubility determination in purified water at 25° C.; format: physicochemical; settings: HPLC assay
Protocol: Excess of (R)-N-[5-methyl-8-(4-methylpiperazin-1-yl)-1,2,3,4-tetrahydro-2-naphthyl]- 4-morpholinobenzamide or it's corresponding salts was added to purified water. The solution was agitated overnight in a water bath, kept at 25° C. by using a thermostat (Julabo SW and U3, 60 strokes/min). The saturated solution was centrifuged and filtered through a 0.45 .quadrature.m Gelman GHP Acrodisc® 13 filter, diluted and assayed by HPLC.

[2] = Solubility and release rate of the base (background statement); format: physicochemical; settings: base form
[3] = water, salts, read-out: Solubility mg/mL (Solubility in Water at 25° C. for different salts)
[4] = rate is different in the stomach and the intestines

SMILES: Cc1ccc(N2CCN(C)CC2)c2c1CC[C@@H](NC(=O)c1ccc(N3CCOCC3)cc1)C2.O=C(O)CO [Glycolate, (R)-N-[5-Methyl-8-(4-methylpiperazin-1-yl)-1,2,3,4-tetrahydro-2-naphthyl]-4-morpholinobenzamide Glycolate]
- solubility [1, 3]: > 23.6 mg/mL

SMILES: Cc1ccc(N2CCN(C)CC2)c2c1CC[C@@H](NC(=O)c1ccc(N3CCOCC3)cc1)C2 [Salicylate, (R)-N-[5-Methyl-8-(4-methylpiperazin-1-yl)-1,2,3,4-tetrahydro-2-naphthyl]-4-morpholinobenzamide Salicylate]
- Solubility mg/mL (Solubility in Water at 25° C. for different salts) ([1]; salts): 0.29 mg/mL

SMILES: Cc1ccc(N2CCN(C)CC2)c2c1CC[C@@H](NC(=O)c1ccc(N3CCOCC3)cc1)C2 [Base, (R)-N-[5-Methyl-8-(4-methylpiperazin-1-yl)-1,2,3,4-tetrahydro-2-naphthyl]-4-morpholinobenzamide]
- solubility ([1]; water, base, read-out: Solubility in Water): 0.034 mg/mL (≈ 75.8 µM)

SMILES: Cc1ccc(N2CCN(C)CC2)c2c1CC[C@@H](NC(=O)c1ccc(N3CCOCC3)cc1)C2 [L-Ascorbate, (R)-N-[5-Methyl-8-(4-methylpiperazin-1-yl)-1,2,3,4-tetrahydro-2-naphthyl]-4-morpholinobenzamide L-Ascorbate]
- Solubility mg/mL (Solubility in Water at 25° C. for different salts) ([1]; salts): 4.2 mg/mL

- pH dependence of release rate [2, 4]: pH dependent
- release rate [2, 4]: slow
- solubility in water ([2]; result in words): extremely low
SMILES: Cc1ccc(N2CCN(C)CC2)c2c1CCC(NC(=O)c1ccc(N3CCOCC3)cc1)C2 (racemic) [compound of formula I, N-[5-methyl-8-(4-methylpiperazin-1-yl)-1,2,3,4-tetrahydro-2-naphthyl]-4-morpholinobenzamide]

SMILES: C[C@H](O)C(=O)O.Cc1ccc(N2CCN(C)CC2)c2c1CC[C@@H](NC(=O)c1ccc(N3CCOCC3)cc1)C2 [L-Lactate, (R)-N-[5-Methyl-8-(4-methylpiperazin-1-yl)-1,2,3,4-tetrahydro-2-naphthyl]-4-morpholinobenzamide L-Lactate]
- solubility ([1]; salts, read-out: Solubility mg/mL (Solubility in Water at 25° C. for different salts)): 18.8 mg/mL

SMILES: Br.Br.Cc1ccc(N2CCN(C)CC2)c2c1CC[C@@H](NC(=O)c1ccc(N3CCOCC3)cc1)C2 [Dihydrobromide, (R)-N-[5-methyl-8-(4-methylpiperazin-1-yl)-1,2,3,4-tetrahydro-2-naphthyl]-4-morpholinobenzamide dihydrobromide]
- solubility [1, 3]: 4.6 mg/mL
